Patent publication US20260234180A1, “AMINO ACID DERIVATIVE, PREPARATION METHOD THEREFOR, AND PHARMACEUTICAL COMPOSITION FOR TREATING HEPATITIS, COMPRISING SAME” (priority 2021, published 2026)

Test system: HBV virus
Assay: HBV infection of HepG2-NTCP cells, HBeAg ELISA analysis
Format: cell-based, hepatitis B virus (HBV)
Details: 20 μM, O.D. 450 nm
Method: Specifically, the HepG2-NTCP cell line was cultured on a 6-well plate, incubation was performed overnight, HBV inhibitors were treated at a concentration of 20 μM, and the positive control Myrcludex-B (MyrB) was treated at a concentration of 200 nM, followed by culture for 24 hours. After HBV infection into the cells to make HBV 3000 genome equivalent per ml/cell (Geq/cell), the cell culture medium was replaced (medium changing, MC) a day after the viral infection to remove the virus unattached to cell membranes. In order to measure an amount of virus that entered the cell, medium changing (MC) was performed once more 4 days after viral infection. 2 days after replacement, HBeAg ELISA analysis was performed using a supernatant, and Southern blot analysis was performed with cell pellets.
HBeAg ELISA analysis was performed using an HBeAg ELISA kit (sanbio, Wantai HBeAg ELISA, cat #WB-2496) for the supernatant obtained by the method in Experimental Example 4-1.
First, a negative control group (Mock), positive control group (MyrB), and samples according to the present disclosure were loaded, by 50 μl each to be triplicate, onto a 96-well plate coated with capture Ab. In this case, Example 1 (LCA-ILE), Example 44 (LCA-Val), Example 52 (LCA-Tyr), Example 51 (LCA-Ser), Example 55 (LCA-Glu), Example 2 (UDCA-Ile), Example 3 (UDCA-Val), Example 25 (LCA-Val-Trp), Example 10 (DCA-Ile), Comparative Example 1 (LCA), and Comparative Example 2 (UDCA) were used as the sample.
The HRP-conjugated detection antibody was loaded into each well by 50 μl, followed by a reaction at 37° C. for 30 minutes. Washing buffer (1×PBS, 0.5% Tween20) was added by 200 μl, and washing was performed 5 times. 50 μl of chromogen solution A and 50 μl of chromogen solution B were added to each well, and a reaction was carried out in the darkness at 37° C. for 15 minutes. The stop solution was added to each well by 50 μl each to stop the reaction, and the amount of HBeAg was measured by measuring the absorbance (optical density, O.D.) level in the 450 nm wavelength band.

Structure (SMILES)	HBeAg absorbance level relative to Comparative Example 1 (LCA) and Comparative Example 2 (UDCA)	HBeAg absorbance level relative to the negative control group (Mock)
CC(C)[C@H](NC(=O)CC[C@@H](C)[C@H]1CC[C@H]2[C@@H]3CC[C@@H]4C[C@H](O)CC[C@]4(C)[C@H]3CC[C@]12C)C(=O)O [Example 44, (S)-2-((R)-4-((3R,5R,8R,9S,10S,13R,14S,17R)-3-hydroxy-10,13-dimethyl-hexadecahydro-1H-cyclopenta[a]phenanthren-17-yl)pentanamido)-3-methylbutanoic acid]	lower	relatively lower
CC[C@@H](C)[C@H](NC(=O)CC[C@@H](C)[C@H]1CC[C@H]2[C@@H]3[C@@H](O)C[C@@H]4C[C@H](O)CC[C@]4(C)[C@H]3CC[C@]12C)C(=O)O [Example 2, (2S,3R)-2-((R)-4-((3R,5S,7S,8R,9S,10S,13R,14S,17R)-3,7-dihydroxy-10,13-dimethyl-hexadecahydro-1H-cyclopenta[a]phenanthren-17-yl)pentanamido)-3-methylpentanoic acid]	lower	relatively lower
CC[C@@H](C)[C@H](NC(=O)CC[C@@H](C)[C@H]1CC[C@H]2[C@@H]3CC[C@@H]4C[C@H](O)CC[C@]4(C)[C@H]3C[C@H](O)[C@]12C)C(=O)O [Example 10, (2S,3R)-2-((R)-4-((3R,5R,8R,9S,10S,12S,13R,14S,17R)-3,12-dihydroxy-10,13-dimethyl-hexadecahydro-1H-cyclopenta[a]phenanthren-17-yl)pentanamido)-3-methylpentanoic acid]	lower	relatively lower
CC(C)[C@H](NC(=O)CC[C@@H](C)[C@H]1CC[C@H]2[C@@H]3[C@@H](O)C[C@@H]4C[C@H](O)CC[C@]4(C)[C@H]3CC[C@]12C)C(=O)O [Example 3, (S)-2-((R)-4-((3R,5S,7S,8R,9S,10S,13R,14S,17R)-3,7-dihydroxy-10,13-dimethyl-hexadecahydro-1H-cyclopenta[a]phenanthren-17-yl)pentanamido)-3-methylbutanoic acid]	lower	relatively lower
CC[C@@H](C)[C@H](NC(=O)CC[C@@H](C)[C@H]1CC[C@H]2[C@@H]3CC[C@@H]4C[C@H](O)CC[C@]4(C)[C@H]3CC[C@]12C)C(=O)O [Example 1, (2S,3R)-2-((R)-4-((3R,5R,8R,9S,10S,13R,14S,17R)-3-hydroxy-10,13-dimethyl-hexadecahydro-1H-cyclopenta[a]phenanthren-17-yl)pentanamido)-3-methylpentanoic acid]	lower	relatively lower
